Columns and labels:
Type in all cases: biochemical
[1] = biological target: T1, human JAK1 (Homo sapiens, UniProt P23458); experiment: JAK1 inhibition assay (polyGT substrate / Ulight-JAK1 peptide); conditions: recombinant human JAK1 catalytic domain; polyGT or Ulight-JAK1 peptide assay
T1 construct: catalytic domain, amino acids 866-1154; catalog number PV4774; purchased Invitrogen PV4774
Outline: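 Signal scaled between vehicle and 10 μM staurosporine. Radiometric polyGT reactions ran 45 min at 30 °C, counted after phosphoric-acid stop. Ulight peptide reactions ran 60 min at room temperature, fluorescence read after adding Eu-PT66 detection mix with EDTA.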

[2] = biological target: T2, human JAK3 (Homo sapiens, UniProt P52333); experiment: JAK3 inhibition assay; conditions: recombinant human JAK3 catalytic domain; polyGT substrate
T2 construct: catalytic domain (amino acids 781-1124; catalog number PV3855); purchased Invitrogen PV3855
T2 sequence (P52333 781-1124): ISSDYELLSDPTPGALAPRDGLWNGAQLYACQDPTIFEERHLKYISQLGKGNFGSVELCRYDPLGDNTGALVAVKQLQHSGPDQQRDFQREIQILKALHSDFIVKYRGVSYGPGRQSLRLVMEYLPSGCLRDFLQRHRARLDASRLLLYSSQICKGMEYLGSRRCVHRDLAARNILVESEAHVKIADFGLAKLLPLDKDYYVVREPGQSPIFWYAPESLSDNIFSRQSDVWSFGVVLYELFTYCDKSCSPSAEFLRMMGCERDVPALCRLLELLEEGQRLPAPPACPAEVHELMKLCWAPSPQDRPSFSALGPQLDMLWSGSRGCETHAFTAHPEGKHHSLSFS
Method: 1.3 JAK3 Inhibition Assay
0.5 ng JAK3 protein was incubated with 2.5 μg polyGT substrate (Sigma catalog number P0275) in kinase reaction buffer (25 mM Tris pH 7.5, 0.5 mM EGTA, 10 mM MgCl2, 2.5 mM DTT, 0.5 mM Na3VO4, 5 mM b-glycerolphosphate, 0.01% Triton X-100, 1 μM non-radioactive ATP, 0.25 μCi 33P-gamma-ATP (GE Healthcare, catalog number AH9968) final concentrations) with or without 5 μL containing test compound or vehicle (DMSO, 1% final concentration), in a total volume of 25 μL, in a polypropylene 96-well plate (Greiner, V-bottom). After 45 min at 30° C., reactions were stopped by adding 25 μL/well of 150 mM phosphoric acid. […] Plates were washed 6 times with 300 μL per well of a 75 mM phosphoric acid solution and the bottom of the plates was sealed. 40 μL/well of Microscint-20 was added, the top of the plates was sealed and readout was performed using the Topcount (Perkin Elmer). Kinase activity was calculated by subtracting counts per min (cpm) obtained in the presence of a positive control inhibitor (10 μM staurosporine) from cpm obtained in the presence of vehicle. The ability of a test compound to inhibit this activity was determined as:
(§1) Percentage inhibition=((cpm determined for sample with test compound present−cpm determined for sample with positive control inhibitor)divided by(cpm determined in the presence of vehicle−cpm determined for sample with positive control inhibitor))*100.
Dose dilution series were prepared for the compounds enabling the testing of dose-response effects in the JAK3 assay and the calculation of the IC50 for each compound. Each compound was routinely tested at concentration of 20 μM followed by a 1/5 serial dilution, 10 points in a final concentration of 1% DMSO.

[3] = biological target: T3, human TYK2 (Homo sapiens, UniProt P29597); experiment: TYK2 inhibition assay; conditions: recombinant human TYK2 catalytic domain, polyGT substrate
T3 construct: catalytic domain (amino acids 871-1187; catalog number 08-147); purchased Carna Biosciences 08-147
T3 sequence (P29597 871-1187): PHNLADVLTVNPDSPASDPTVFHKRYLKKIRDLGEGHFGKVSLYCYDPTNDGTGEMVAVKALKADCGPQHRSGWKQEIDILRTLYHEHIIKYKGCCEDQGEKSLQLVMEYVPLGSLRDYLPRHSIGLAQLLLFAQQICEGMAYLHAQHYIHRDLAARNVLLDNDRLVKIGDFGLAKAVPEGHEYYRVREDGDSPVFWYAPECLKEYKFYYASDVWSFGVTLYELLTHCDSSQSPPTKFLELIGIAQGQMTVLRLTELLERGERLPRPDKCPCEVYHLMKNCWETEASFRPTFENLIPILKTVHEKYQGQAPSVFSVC
Method: 1.4 TYK2 Inhibition Assay
After 90 min at 30° C., reactions were stopped by adding 25 μL/well of 150 mM phosphoric acid. […] Plates were washed 6 times with 300 μL per well of a 75 mM phosphoric acid solution and the bottom of the plates was sealed. 40 μL/well of Microscint-20 was added, the top of the plates was sealed and readout was performed using the Topcount (Perkin Elmer). Kinase activity was calculated by subtracting counts per min (cpm) obtained in the presence of a positive control inhibitor (10 μM staurosporine) from cpm obtained in the presence of vehicle. The ability of a test compound to inhibit this activity was determined as:
as §1
Dose dilution series were prepared for the compounds enabling the testing of dose-response effects in the TYK2 assay and the calculation of the IC50 for each compound.

[4] = biological target: T4, human JAK2 (Homo sapiens, UniProt O60674); experiment: JAK2 inhibition assay (polyGT substrate / Ulight-JAK1 peptide); conditions: recombinant human JAK2 catalytic domain; polyGT or Ulight-JAK1 peptide assay
T4 construct: catalytic domain (amino acids 808-1132; catalog number PV4210); GST; purchased Invitrogen PV4210
T4 sequence (O60674 808-1132): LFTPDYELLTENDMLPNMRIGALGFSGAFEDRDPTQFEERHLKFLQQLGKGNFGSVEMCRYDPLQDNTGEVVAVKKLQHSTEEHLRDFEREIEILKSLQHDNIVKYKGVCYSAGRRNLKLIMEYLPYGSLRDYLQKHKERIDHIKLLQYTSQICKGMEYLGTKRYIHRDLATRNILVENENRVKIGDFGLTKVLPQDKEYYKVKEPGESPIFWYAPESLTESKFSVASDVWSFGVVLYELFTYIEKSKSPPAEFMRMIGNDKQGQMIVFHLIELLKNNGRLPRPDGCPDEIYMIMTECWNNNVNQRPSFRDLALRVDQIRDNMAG
Outline: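 Two JAK2 formats: a ^33P-ATP polyGT assay (1 μM cold ATP, 90 min, 30° C., cpm read-out) and a Ulight-JAK1 peptide assay read by Europium-anti-phosphotyrosine fluorescence after 60 min at room temperature.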

T1 sequence (P23458 866-1154): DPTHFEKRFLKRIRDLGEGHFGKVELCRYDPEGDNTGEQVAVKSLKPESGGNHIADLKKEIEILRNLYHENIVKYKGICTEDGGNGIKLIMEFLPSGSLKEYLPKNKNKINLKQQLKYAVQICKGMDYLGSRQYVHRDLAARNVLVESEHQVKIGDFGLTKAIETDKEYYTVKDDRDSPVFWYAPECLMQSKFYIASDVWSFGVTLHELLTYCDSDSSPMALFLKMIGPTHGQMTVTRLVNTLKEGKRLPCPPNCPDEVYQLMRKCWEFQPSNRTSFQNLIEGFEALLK

Row | Compound | IC50 [1] | IC50 [2] | IC50 [3] | IC50 [4]
1 | CN(c1cc2c(cn1)ncn2C)c1ccccc1Cl [Compound 68, N-(2-Chlorophenyl)-N,1-dimethyl-1H-imidazo[4,5-c]pyridin-6-amine] | 101 to 500 nM | > 1000 nM | 501 to 1000 nM | > 1000 nM
2 | CCc1cc(C(C#N)N2CC(NS(C)(=O)=O)C2)ccc1N(C)c1cc2c(cn1)ncn2C (stereo not shown) [Compound 455, N-[1-(Cyano-{3-ethyl-4-[methyl-(1-methyl-1H-imidazo[4,5-c]pyridin-6-yl)-amino]-phenyl}-methyl)-azetidin-3-yl]-methanesulfonamide] | 0.01 to 100 nM | 0.01 to 100 nM | 0.01 to 100 nM | 0.01 to 100 nM
3 | CCc1cc(CC(=O)N2CC(C)(C)C2)ccc1N(C)c1cc2c(cn1)ncn2C [Compound 386, 1-(3,3-Dimethyl-azetidin-1-yl)-2-{3-ethyl-4-[methyl-(1-methyl-1H-imidazo[4,5-c]pyridin-6-yl)-amino]-phenyl}-ethanone] | 101 to 500 nM | > 1000 nM | > 1000 nM | > 1000 nM
4 | CN(c1cc2c(cn1)ncn2C)c1ccc(C2CN(S(=O)(=O)N3CCOCC3)C2)cc1OC(F)F [Compound 371, {2-Difluoromethoxy-4-[1-(morpholine-4-sulfonyl)-azetidin-3-yl]-phenyl}-methyl-(1-methyl-1H-imidazo[4,5-c]pyridin-6-yl)-amine] | 0.01 to 100 nM | > 1000 nM | > 1000 nM | 101 to 500 nM
5 | CCc1cc(N2CC(C(=O)OC)C2)ncc1N(C)c1cc2c(cn1)ncn2C [Compound 399, 1-{4-Ethyl-5-[methyl-(1-methyl-1H-imidazo[4,5-c]pyridin-6-yl)-amino]-pyridin-2-yl}-azetidine-3-carboxylic acid methyl ester] | 0.01 to 100 nM | > 1000 nM | > 1000 nM | 101 to 500 nM
6 | CCc1cc(C2CN(C(=O)C3(C#N)CC3)C2)ccc1N(C)c1cc2c(cn1)ncn2C [Compound 348, 1-(3-{3-Ethyl-4-[methyl-(1-methyl-1H-imidazo[4,5-c]pyridin-6-yl)-amino]-phenyl}-azetidine-1-carbonyl)-cyclopropanecarbonitrile] | 101 to 500 nM | > 1000 nM | > 1000 nM | 501 to 1000 nM
7 | CCNC(=O)C1CN(c2cc(CC)c(N(C)c3cc4c(cn3)ncn4C)cn2)C1 [Compound 412, 1-{4-Ethyl-5-[methyl-(1-methyl-1H-imidazo[4,5-c]pyridin-6-yl)-amino]-pyridin-2-yl}-azetidine-3-carboxylic acid ethylamide] | 501 to 1000 nM | > 1000 nM | > 1000 nM | 501 to 1000 nM
8 | CCc1cc(CNC2CCS(=O)(=O)C2)ccc1N(C)c1cc2c(cn1)ncn2C (stereo not shown) [Compound 300, {4-[(1,1-Dioxo-tetrahydro-thiophen-3-ylamino)-methyl]-2-ethyl-phenyl}-methyl-(1-methyl-1H-imidazo[4,5-c]pyridin-6-yl)-amine] | 0.01 to 100 nM | > 1000 nM | 501 to 1000 nM | 101 to 500 nM
9 | CCc1cc(-c2ccc(C#N)s2)ncc1N(C)c1cc2c(cn1)ncn2C [Compound 301, 5-{4-Ethyl-5-[methyl-(1-methyl-1H-imidazo[4,5-c]pyridin-6-yl)-amino]-pyridin-2-yl}-thiophene-2-carbonitrile] | 0.01 to 100 nM | 0.01 to 100 nM | 0.01 to 100 nM | 0.01 to 100 nM
10 | CCc1cn(C2(CC#N)CN(S(C)(=O)=O)C2)nc1N(C)c1cc2c(cn1)ncn2C [Compound 310, (3-{4-Ethyl-3-[methyl-(1-methyl-1H-imidazo[4,5-c]pyridin-6-yl)-mino]-pyrazol-1-yl}-1-methanesulfonyl-azetidin-3-yl)-acetonitrile] | > 1000 nM | > 1000 nM | > 1000 nM | > 1000 nM
11 | Cc1ccc(OCc2ccc(C#N)nc2)cc1N(C)c1cc2c(cn1)ncn2C [Compound 92, 5-((4-methyl-3-(methyl(1-methyl-1H-imidazo[4,5-c]pyridin-6-yl)amino)phenoxy)methyl) picolinonitrile] | 0.01 to 100 nM | > 1000 nM | > 1000 nM | > 1000 nM
12 | CCN(c1ccc2c(cnn2C)c1)c1cc2c(cn1)ncn2C [Compound 5, N-ethyl-1-methyl-N-(1-methyl-1H-indazol-5-yl)-1H-imidazo[4,5-c]pyridin-6-amine] | 101 to 500 nM | > 1000 nM | 501 to 1000 nM | > 1000 nM
13 | CCc1cc(C2CN(C(=O)CCC(F)(F)F)C2)ncc1N(C)c1cc2c(cn1)ncn2C [Compound 338, 1-(3-{4-Ethyl-5-[methyl-(1-methyl-1H-imidazo[4,5-c]pyridin-6-yl)-amino]-pyridin-2-yl}-azetidin-1-yl)-4,4,4-trifluoro-butan-1-one] | 501 to 1000 nM | > 1000 nM | > 1000 nM | > 1000 nM
14 | CCc1cc(N2CC(NS(C)(=O)=O)C2)ncc1N(C)c1cc2c(cn1)ncn2C [Compound 443, N-(1-{4-Ethyl-5-[methyl-(1-methyl-1H-imidazo[4,5-c]pyridin-6-yl)-amino]-pyridin-2-yl}-azetidin-3-yl)-methAnesulfonamide] | 0.01 to 100 nM | 101 to 500 nM | 0.01 to 100 nM | 0.01 to 100 nM
15 | CCc1cn(C2(CC#N)CN(C(=O)OC(C)(C)C)C2)nc1N(C)c1cc2c(cn1)ncn2C [Compound 308, 3-Cyanomethyl-3-{4-ethyl-3-[methyl-(1-methyl-1H-imidazo[4,5-c]pyridin-6-yl)-amino]-pyrazol-1-yl}-azetidine-1-carboxylic acid tert-butyl ester] | > 1000 nM | > 1000 nM | > 1000 nM | > 1000 nM
16 | Cc1cc(OCc2ccc(C#N)nc2)ccc1N(C)c1cc2c(cn1)ncn2C [Compound 89, 5-((3-methyl-4-(methyl(1-methyl-1H-imidazo[4,5-c]pyridin-6-yl)amino)phenoxy)methyl) picolinonitrile] | 101 to 500 nM | > 1000 nM | > 1000 nM | > 1000 nM
17 | CN(c1cc2c(cn1)ncn2C)c1ccc(CN(CC2CC2)S(C)(=O)=O)cc1F [Compound 360] | 101 to 500 nM | > 1000 nM | > 1000 nM | 101 to 500 nM
18 | CCc1cc(N2CC(N)C2)ncc1N(C)c1cc2c(cn1)ncn2C [Compound 442, [6-(3-Amino-azetidin-1-yl)-4-ethyl-pyridin-3-yl]-methyl-(1-methyl-1H-imidazo[4,5-d]pyridin-6-yl)-amine] | 101 to 500 nM | > 1000 nM | > 1000 nM | > 1000 nM
19 | Cc1ccc(N(C)c2cc3c(cn2)ncn3C)c(OC(F)F)c1 [Compound 427, (2-Difluoromethoxy-4-methyl-phenyl)-methyl-(1-methyl-1H-imidazo[4,5-c]pyridin-6-yl)-amine] | 0.01 to 100 nM | > 1000 nM | > 1000 nM | 0.01 to 100 nM
